# Values of other authors in patent US20080200512A1, “Hepatitis C virus polymerase inhibitors” (priority 2007, published 2008).
# System: HCV
# Conditions: monotherapy
structure (smiles),measurement,value
"NC(=O)c1ncn([C@@H]2O[C@H](CO)[C@@H](O)[C@H]2O)n1 [ribavirin, 1-((2R,3R,4S,5R)-3,4-dihydroxy-5-hydroxymethyl-tetrahydro-furan-2-yl)-1H-[1,2,4]triazole-3-carboxylic acid amide]",patients in whom serum amino transferase levels are reduced to normal,40%
